One data set deals with Vero C1008. Nature of the data set: Cytotoxicity against african green monkey Vero E6 cells after 48 hrs by MTT assay. It counts as toxicity, cell-based. Conditions: chlorocebus sabaeus, vero c1008, 48 h. On the technique in general: Tetrazolium assays rely on reduction of a dye to a coloured formazan, in cell work by metabolically active cells.
A short description of data set [1]: Selectivity index, ratio for cytotoxicity against human Huh-7 cells after 48 hrs to antiviral activity against Chikungunya virus ECSA infected in Huh-7 cells expressing GFP pre-infected with virus for 1 hr followed by compound addition and measured after 48 hrs post infection. Conditions: read-out: Selectivity Index. It counts as toxicity, cell-based.
Data set [2] in a line: Selectivity index, ratio for cytotoxicity against human HepG2 cells after 24 hrs to antiviral activity against HEV Kernow-C1 infected in gaussia luciferase transfected HepG2 cells pre-infected with virus for 4 hrs followed by compound addition and measured after 24 hrs post infection. It counts as toxicity, cell-based. As to conditions: read-out: Selectivity Index.
A short description of data set [3]: Selectivity index, ratio for cytotoxicity against african green monkey Vero E6 cells after 48 hrs to antiviral activity against SARS-CoV-2 2019-nCoV Muc-IMB-1 infected in Vero E6 cells pre-infected with virus for 1 hr followed by compound addition and measured after 48 hrs post infection. Conditions: read-out: Selectivity Index. The format is toxicity, cell-based, Vero C1008.

Data set [4] in a line: Selectivity index, ratio for cytotoxicity against african green monkey Vero E6 cells after 24 hrs to antiviral activity against SARS-CoV-2 2019-nCoV Muc-IMB-1 infected in Vero E6 cells pre-infected with virus for 1 hr followed by compound addition and measured after 24 hrs post infection. It counts as toxicity, cell-based, Vero C1008. As to conditions: read-out: Selectivity Index.

Data set [5] is described as follows: Selectivity index, ratio for cytotoxicity against african green monkey Vero E6 cells after 48 hrs to antiviral activity against RVFV MP-12 infected in Vero E6 cells pre-infected with virus for 1 hr followed by compound addition and measured after 48 hrs post infection. Conditions: read-out: Selectivity Index. It counts as toxicity, cell-based, Vero C1008.
Data set [6] is described as follows: Selectivity index, ratio for cytotoxicity against human Huh-7 cells after 24 hrs to antiviral activity against Chikungunya virus ECSA infected in Huh-7 cells expressing GFP pre-infected with virus for 1 hr followed by compound addition and measured after 24 hrs post infection. Conditions: read-out: Selectivity Index. It counts as toxicity, cell-based.
Data set [7] in a line: Selectivity index, ratio for cytotoxicity against african green monkey Vero E6 cells after 24 hrs to antiviral activity against RVFV MP-12 infected in Vero E6 cells pre-infected with virus for 1 hr followed by compound addition and measured after 24 hrs post infection. The format is toxicity, cell-based, Vero C1008. Conditions: read-out: Selectivity Index.
Data set [8] can be described thus: Selectivity index, ratio for cytotoxicity against human HepG2 cells after 48 hrs to antiviral activity against HEV Kernow-C1 infected in gaussia luciferase transfected HepG2 cells pre-infected with virus for 4 hrs followed by compound addition and measured after 48 hrs post infection. As to conditions: read-out: Selectivity Index. It counts as toxicity, cell-based.

As a reminder, the CC50 is the concentration at which the toxic effect on the cells reaches its halfway point.

The structures appear in SMILES notation.

For `CONC(=O)[C@H]1[C@@H](O)[C@@]2(O)c3c(Cl)cc(Br)cc3O[C@@]2(c2ccc(OC)cc2)[C@@H]1c1ccccc1` (racemic), half-maximal cytotoxicity with Vero C1008 (CC50) was put at 176 nM. Further, the selectivity ratio at 48 h amounted to 317 in [1], 0.9 in data set [3], 1.7 in [5] and 5.7 in [8]. Further, the selectivity ratio at 24 h in data set [2] came out at 123; in data set [4], 19.5; in [6], 402; in data set [7], 23.8.

The values are drawn from ChEMBL document CHEMBL5344434.
